Data: patent US10669300B2, “Methods of separating gemcitabine-phosphate diastereoisomers” (NuCana plc, priority 2014, dated 2020)

Experiments:
[1] = Solvent screening: amounts of the two epimers in solution after slurrying NUC-1031 mixture; assay type: physicochemical; settings: for epimer in solution: 33:67 (R):(S) mixture in 1 mL, stirred overnight
Procedure: First a solvent screening was conducted with 17 different solvents (see Table 1). Approximately 25 mg of a diastereomeric mixture (33:67 (R):(S)) of NUC-1031 was suspended in the listed solvents (1 mL) and stirred overnight. In case dissolution occurred more solid was added. The suspensions were sedimented and the relative amounts of the two diastereoisomers in solution was determined by HPLC.

[2] = Crystallisation optimisation: slurries in acetonitrile and isopropanol, epimers in solution; assay type: physicochemical; settings: 20° C., 200 mg 33:67 (R):(S) mixture
Procedure: The enrichment provided by acetonitrile and isopropanol were evaluated at a range of concentrations and temperatures (see Table 2). Two types of experiments were conducted: simple slurries (20° C.) in different volumes and slurries/recrystallisations at 80° C. For the experiments 200 mg of the diastereomeric mixture (33:67 (R):(S)) was suspended in the solvents and volume indicated below and optionally heated to reflux and cooled to 20° C. The suspensions were stirred overnight and isolated. The relative proportions of the two epimers present in both the solution and in the solid cake were determined by HPLC.

[3] = Solubility in mixtures of polar organic solvents with water; assay type: physicochemical
Description: It has recently been discovered that the (S)-epimer 3 of gemcitabine-[phenyl-benzoxy-L-alaninyl)]-phosphate has sufficient solubility in mixtures of a number of polar organic solvents with water to render it suitable for formulation and administration as a therapeutic agent. […] In certain solvent mixtures the difference in solubility between the (S)-epimer and the (R)-epimer is over 100 fold. It is expected therefore that more clinically effective, practical and patient friendly administration methods can be developed using the (S)-epimer than can be developed using the (R)-epimer or using the mixture. It is thus desirable to be able to provide gemcitabine-[phenyl-benzoxy-L-alaninyl)]-(S)-phosphate 3 in substantially diastereoisomerically pure form.

[4] = tested on: isolated human hepatic cells; experiment: Half-life on incubation with isolated human hepatic cells; assay type: in vitro ADME
Description: The longer half-life associated with (R)-isomer indicates a lower intrinsic clearance and should result in a different pharmacokinetic and pharmacodynamic profile to the (S)-isomer which may offer some benefits.

[5] = Crystallisation optimisation: slurries in acetonitrile and isopropanol, epimers in solution; assay type: physicochemical; settings: 83° C. (heated to reflux, cooled to 20° C.), 200 mg 33:67 (R):(S) mixture
Solubility in water = assay type: physicochemical; settings: regardless of salt content or pH
Description: It also has implications for the development of efficient manufacturing processes which will allow NUC-1031 to be produced cost effectively.

C[C@H](N[P@@](=O)(OC[C@H]1O[C@@H](n2ccc(N)nc2=O)C(F)(F)C1O)Oc1ccccc1)C(=O)OCc1ccccc1 (single isomer, unassigned; epimer 2) [(R)-epimer]
epimer in solution ([1]; solvent ACN): 1.1 mg/mL
epimer in solution ([1]; solvent EtOAc): 0.7 mg/mL
epimer in solution ([1]; solvent EtOH): 4.9 mg/mL
epimer in solution ([1]; solvent H2O): 0.5 mg/mL
epimer in solution ([1]; solvent IPA): 1.6 mg/mL
epimer in solution ([1]; solvent MEK): 0.9 mg/mL
epimer in solution ([1]; solvent MIBK): 0.7 mg/mL
epimer in solution ([1]; solvent MeOH): 22.8 mg/mL
epimer in solution ([1]; solvent MeTHF): 0.6 mg/mL
epimer in solution ([1]; solvent TBME): 0.1 mg/mL
epimer in solution ([1]; solvent THF): 3.0 mg/mL
epimer in solution ([1]; solvent acetone): 2.2 mg/mL
epimer in solution ([1]; solvent iPrOAc): 0.6 mg/mL
epimer in solution ([1]; solvent nBuOH): 1.6 mg/mL
epimer in solution ([1]; solvent nPrOH): 2.2 mg/mL
epimer in solution ([1]; solvent nheptane): 0.4 mg/mL
epimer in solution ([1]; solvent toluene): 0.2 mg/mL
epimer in solution ([2]; ACN solution, 5 mL): 0.67 mg/mL
epimer in solution ([2]; ACN solution, 10 mL): 0.59 mg/mL
epimer in solution ([2]; ACN solution, 15 mL): 0.63 mg/mL
epimer in solution ([2]; IPA solution, 5 mL): 0.77 mg/mL
epimer in solution ([2]; IPA solution, 10 mL): 0.77 mg/mL
epimer in solution ([2]; IPA solution, 15 mL): 0.58 mg/mL
solubility compared with the (S)-epimer ([3]; mixtures of polar organic solvents with water): considerably lower
half-life relative to that of the (S)-epimer [4]: four times
epimer in solution ([5]; ACN solution, 5 mL): 1.01 mg/mL
epimer in solution ([5]; ACN solution, 10 mL): 1.09 mg/mL
epimer in solution ([5]; ACN solution, 15 mL): 1.19 mg/mL
epimer in solution ([5]; IPA solution, 5 mL): 1.42 mg/mL
epimer in solution ([5]; IPA solution, 10 mL): 3.38 mg/mL

C[C@H](N[P@](=O)(OC[C@H]1O[C@@H](n2ccc(N)nc2=O)C(F)(F)C1O)Oc1ccccc1)C(=O)OCc1ccccc1 (single isomer, unassigned; epimer 2) [(S)-epimer]
solubility compared with the (R)-epimer ([1]; in all solvents tested): higher solubility
epimer in solution ([1]; solvent ACN): 10.0 mg/mL
epimer in solution ([1]; solvent EtOAc): 1.1 mg/mL
epimer in solution ([1]; solvent EtOH): 15.7 mg/mL
epimer in solution ([1]; solvent H2O): 0.9 mg/mL
epimer in solution ([1]; solvent IPA): 13.0 mg/mL
epimer in solution ([1]; solvent MEK): 3.2 mg/mL
epimer in solution ([1]; solvent MIBK): 1.0 mg/mL
epimer in solution ([1]; solvent MeOH): 35.1 mg/mL
epimer in solution ([1]; solvent MeTHF): 1.2 mg/mL
epimer in solution ([1]; solvent TBME): 0.1 mg/mL
epimer in solution ([1]; solvent THF): 6.6 mg/mL
epimer in solution ([1]; solvent acetone): 7.7 mg/mL
epimer in solution ([1]; solvent iPrOAc): 0.6 mg/mL
epimer in solution ([1]; solvent nBuOH): 14.4 mg/mL
epimer in solution ([1]; solvent nPrOH): 10.8 mg/mL
epimer in solution ([1]; solvent nheptane): 0.4 mg/mL
epimer in solution ([1]; solvent toluene): 0.7 mg/mL
epimer in solution ([2]; ACN solution, 5 mL): 9.04 mg/mL
epimer in solution ([2]; ACN solution, 10 mL): 8.85 mg/mL
epimer in solution ([2]; ACN solution, 15 mL): 9.74 mg/mL
epimer in solution ([2]; IPA solution, 5 mL): 17.75 mg/mL
epimer in solution ([2]; IPA solution, 10 mL): 12.98 mg/mL
epimer in solution ([2]; IPA solution, 15 mL): 7.16 mg/mL
difference in solubility between the (S)-epimer and the (R)-epimer ([3]; in certain solvent mixtures): over 100 fold
epimer in solution ([5]; ACN solution, 5 mL): 11.03 mg/mL
epimer in solution ([5]; ACN solution, 10 mL): 11.00 mg/mL
epimer in solution ([5]; ACN solution, 15 mL): 10.67 mg/mL
epimer in solution ([5]; IPA solution, 5 mL): 18.20 mg/mL
epimer in solution ([5]; IPA solution, 10 mL): 12.83 mg/mL

C[C@H](NP(=O)(OC[C@H]1O[C@@H](n2ccc(N)nc2=O)C(F)(F)C1O)Oc1ccccc1)C(=O)OCc1ccccc1 (stereo partly shown) [NUC-1031]
solubility in water (Solubility in water): essentially insoluble in water
